Experimental data as given in US10448639B2, “Fungicidal pyrazoles” (FMC CORPORATION, priority 2009, dated 2019).
Read-outs that look alike come from different tables or passages of the source.

Experiments:
Plasmopara viticola = test: Test A: grape downy mildew, curative spray on inoculated grape seedlings, visual disease rating; type: in vivo; conditions: 100 = 100% disease control; for Test A rating (% disease control): 0 = no control relative to controls
Source text: Upon removal, visual disease ratings were made. […] A dash (-) indicates no test results.

Phytophthora infestans = type: in vivo; conditions: tomato late blight, 100 = 100% disease control
Rhizoctonia solani = test: Test E: turf brown patch, preventive spray on creeping bent grass (Agrostis sp.) seedlings, disease rating; type: in vivo; conditions: 100 = 100% disease control
Source text: A dash (-) indicates no test results.

[1] = tested on: Puccinia recondita f. sp. tritici; test: Test I: wheat leaf rust, preventive spray on wheat seedlings, visual disease rating
Botrytis cinerea = test: Test B: tomato Botrytis, preventive spray on tomato seedlings, visual disease rating
Septoria tritici = test: Test G: wheat leaf blotch, preventive spray on wheat seedlings, visual disease rating; conditions: for Test G rating (% disease control): preventive spray, 0 = no control
Alternaria solani = test: Test C: tomato early blight, preventive spray on tomato seedlings, visual disease rating
[2] = tested on: Erysiphe graminis f sp. tritici; test: Test J: wheat powdery mildew, preventive spray on wheat seedlings, visual disease rating
Source text: (§1) General protocol for preparing test suspensions for Tests A-J: the test compounds were first dissolved in acetone in an amount equal to 3% of the final volume and then suspended at the desired concentration (in ppm) in acetone and purified water (50/50 mix by volume) containing 250 ppm of the surfactant Trem® 014 (polyhydric alcohol esters). The resulting test suspensions were then used in Tests A-J. Spraying a 200 ppm test suspension to the point of run-off on the test plants was the equivalent of a rate of 500 g/ha. Unless otherwise indicated, the rating values indicate a 200 ppm test suspension was used. (An asterisk “*” next to the rating value indicates a 40 ppm test suspension was used.)
The test suspension was sprayed to the point of run-off on wheat seedlings. The following day the seedlings were inoculated with a spore dust of Erysiphe graminis f sp. tritici, (the causal agent of wheat powdery mildew) and incubated in a growth chamber at 20° C. for 8 days, after which time visual disease ratings were made.

Septoria nodorum = test: Test F: Septoria glume blotch, preventive spray on wheat seedlings, visual disease rating
Source text: as §1
The test suspension was sprayed to the point of run-off on wheat seedlings. The following day the seedlings were inoculated with a spore suspension of Septoria nodorum (the causal agent of Septoria glume blotch) and incubated in a saturated atmosphere at 24° C. for 48 h, and then moved to a growth chamber at 20° C. for 6 days, after which time visual disease ratings were made.

[3] = preventive spray, 0 = no control
[4] = wheat leaf rust, preventive spray, 100 = 100% disease control, 0 = no control
[5] = tomato Botrytis, preventive spray, 100 = 100% disease control, 0 = no control
[6] = wheat leaf blotch, 100 = 100% disease control
[7] = tomato early blight, preventive spray, 100 = 100% disease control, 0 = no control
[8] = wheat powdery mildew, preventive spray, 100 = 100% disease control, 0 = no control
[9] = Septoria glume blotch on wheat, preventive spray, 100 = 100% disease control, 0 = no control
[10] = 0 = no disease control relative to controls
[11] = 0 = no control relative to controls
[12] = wheat leaf rust, preventive, 100 = 100% disease control, 0 = no control relative to controls
[13] = tomato Botrytis, 100 = 100% disease control, 0 = no control relative to controls
[14] = tomato early blight, 100 = 100% disease control, 0 = no control relative to controls
[15] = wheat powdery mildew, 100 = 100% disease control, 0 = no control relative to controls
[16] = Septoria glume blotch, 100 = 100% disease control, 0 = no control relative to controls

Structure (SMILES)	Test A rating (% disease control) (Plasmopara viticola; curative spray) [%]	Test D rating (% disease control) (Phytophthora infestans; [3]) [%]	Test E rating (% disease control) (Rhizoctonia solani; [3]) [%]	Test I rating (% disease control) [1, 4] [%]	Test B rating (% disease control) (Botrytis cinerea; [5]) [%]	Test G rating (% disease control) (Septoria tritici; [6]) [%]	Test C rating (% disease control) (Alternaria solani; [7]) [%]	Test J rating (% disease control) [2, 8] [%]	Test F rating (% disease control) (Septoria nodorum; [9]) [%]	other results
Cc1nn(C)c(N(C)c2cccc(Cl)c2)c1-c1ccc(F)cc1F [compound 3]	6	9	0	0	0	13	25	99	0	
Cc1nn(C)c(Nc2ccc(F)cc2F)c1-c1ccc(Cl)cc1 [compound 4]	29	0	0	53	87	98	46	97	0	
Cc1nn(C)c(Nc2cccc(Cl)c2)c1-c1ccc(F)cc1F [Compound 1, N-(3-Chlorophenyl)-4-(2,4-difluorophenyl)-1,3-dimethyl-1H-pyrazol-5-amine]	0	0	47							pest or weed control at 200 µg/mL ([1]; 192 h, read-out: Test I rating (% disease control)): 0%; pest or weed control at 200 µg/mL (Botrytis cinerea; Botrytis cinerea, in Solanum lycopersicum, 120 h, read-out: Test B rating (% disease control)): 99%; pest or weed control at 200 µg/mL (Septoria tritici; Zymoseptoria tritici, in Triticum aestivum, 504 h, read-out: Test G rating (% disease control)): 99%; pest or weed control at 200 µg/mL (Alternaria solani; Alternaria solani, in Solanum lycopersicum, 168 h, read-out: Test C rating (% disease control)): 0%; pest or weed control at 200 µg/mL ([2]; Blumeria graminis, in Triticum aestivum, 192 h, read-out: Test J rating (% disease control)): 98%; pest or weed control at 200 µg/mL (Septoria nodorum; Parastagonospora nodorum, in Triticum aestivum, 192 h, read-out: Test F rating (% disease control)): 0%
Cc1nn(C)c(Nc2cccc(F)c2)c1-c1ccc(F)cc1Cl [compound 8]	55	0	99	97	99	100	54	99	0	
Cc1nn(C)c(Nc2ccc(F)c(Cl)c2)c1-c1ccc(F)cc1Cl [compound 7]	29	0	63	74	99	100	0	92	0	
Cc1nn(C)c(Nc2cc(F)cc(F)c2)c1-c1ccc(Cl)cc1 [compound 5]	36	0	0	0	0	0	25	0	0	
COc1cc(Nc2c(-c3ccc(F)cc3F)c(C)nn2C)cc(OC)c1 [compound 2]	8	0	0	0	1	0	0	0	0	
Cc1nn(C)c(N(C)c2cc(F)cc(F)c2)c1-c1ccc(Cl)cc1 [compound 6]	65	0	0	0	10	0	23	93	0	
Cc1nn(C)c(N(CC#N)c2c(F)cc(F)cc2F)c1-c1ccc(F)cc1Cl [compound 326]										Test A disease control rating (Plasmopara viticola; [10]): 8%; Test D disease control rating (Phytophthora infestans; [10]): 0%; Test E disease control rating (Rhizoctonia solani; [10]): 99%; Test I disease control rating ([1]; wheat leaf rust, sprayed the day before inoculation, 100 = 100% disease control, 0 = no disease control relative to controls): 99%; Test B disease control rating (Botrytis cinerea; tomato Botrytis, 100 = 100% disease control, 0 = no disease control relative to controls): 99%; Test G disease control rating (Septoria tritici; wheat leaf blotch, sprayed the day before inoculation, 100 = 100% disease control, 0 = no disease control relative to controls): 100%; Test C disease control rating (Alternaria solani; tomato early blight, 100 = 100% disease control, 0 = no disease control relative to controls): 99%; Test J disease control rating ([2]; wheat powdery mildew, sprayed the day before inoculation, 100 = 100% disease control, 0 = no disease control relative to controls): 94%; Test F disease control rating (Septoria nodorum; Septoria glume blotch on wheat, 100 = 100% disease control, 0 = no disease control relative to controls): 73%
COc1cc(Nc2c(-c3c(F)cccc3F)c(C)nn2C)cc(OC)c1 [compound 37]	0	0	0	0	0	3	0	0	0	
Cc1nn(C)c(N(C)c2c(F)cc(F)cc2F)c1-c1ccc(F)cc1Cl [compound 293]										Test A rating (% disease control) (Plasmopara viticola): 0%; Test D rating (% disease control) (Phytophthora infestans; [11]): 0%; Test E rating (% disease control) (Rhizoctonia solani; [11]): 99%; Test I rating (% disease control) [1, 12]: 94%; Test B rating (% disease control) (Botrytis cinerea; [13]): 97%; Test C rating (% disease control) (Alternaria solani; [14]): 47%; Test J rating (% disease control) [2, 15]: 99%; Test F rating (% disease control) (Septoria nodorum; [16]): 0%
COc1ccc(Nc2c(-c3ccc(F)cc3Cl)c(C)nn2C)cc1 [compound 288]										Test A rating (% disease control) (Plasmopara viticola): 9%; Test D rating (% disease control) (Phytophthora infestans; [11]): 0%; Test E rating (% disease control) (Rhizoctonia solani; [11]): 92%; Test I rating (% disease control) [1, 12]: 74%; Test B rating (% disease control) (Botrytis cinerea; [13]): 99%; Test C rating (% disease control) (Alternaria solani; [14]): 52%; Test J rating (% disease control) [2, 15]: 92%; Test F rating (% disease control) (Septoria nodorum; [16]): 0%
